Results on two molecules are retold here after US9133232B2, “Fused pentacyclic polyethers” (priority 2003, dated 2015).

A word on the Ki: it is a dissociation constant, usually derived from enzyme kinetics or from competition with a known ligand. What is called EC50 is the concentration giving half of the maximal effect.

Read-outs that look alike come from different tables or passages of the source.

In data set [1] the target is rat brain synaptosome. Briefly: Competitive rat brain synaptosome assay (displacement of tritiated brevetoxin PbTx-2). Format: binding. The conditions noted are these: for Ki / EC50: competition with tritiated PbTx-2; for EC50: read-out: approximate EC50; for displacement of tritiated brevetoxin PbTx-2: compound added at about 1000× the concentration of the tritiated PbTx-2. As to the method:
Competitive rat brain synaptosome assays were performed as described in Poli et al., 1986. […];

In data set [2] the test system is Male mosquito fish. The data set is classed as in vivo. The conditions noted are these: for death of fish exposed to brevenal alone: monitored 24 h. As to the method:
Male mosquito fish (n=104) were used in this assay. Fish were placed individually in 50 mL beakers containing 20 mL water. The test compounds (PbTx-2 and brevenal) were dissolved in EtOH at a concentration of 0.1 mg/mL and added to the fish in a total of 200 μL EtOH. The control fish received 200 uL EtOH. Fish were exposed to toxin alone (1 μg/mL water), brevenal alone (1 or 2 μg/mL water), or both brevenal (1.0 μg/mL water and toxin (1.0 μg/mL water) with the brevenal being added 3 min. before the toxin. After addition of the difference compounds the fish were monitored for 24 h. or until the time of death. Significant differences were determined using a two-way Student's t-test.

For `C=C/C=C\CC[C@H]1O[C@H]2CC[C@@]3(C)O[C@H]4[C@@H](O)C[C@@]5(C)O[C@@H](CC/C=C(C)/C(C)=C/C=O)[C@@H](C)C[C@@H]5O[C@@H]4C[C@@H]3O[C@@H]2CC[C@@]1(C)O` [brevenal], in data set [1], the Ki came to 1.86 µM, the EC50 is about 3.69 µM and the “displacement of tritiated brevetoxin PbTx-2” value is about 80%. Besides, in data set [2] (brevenal 1.0 μg/mL water added 3 min. before PbTx-2 1.0 μg/mL water), the “time of death after exposure, fish given brevenal and PbTx-2” value is recorded as “about 17 min”. The “prolonging of life versus PbTx-2 only” value in data set [2] (brevenal 1.0 μg/mL water added 3 min. before an equal concentration of PbTx-2) was about 2.5 fold. Further, in data set [2] (brevenal alone 1 μg/ml water), the “death of fish exposed to brevenal alone” value is recorded as “did not die after 24 h”. Also, in data set [2] (brevenal alone 2 μg/ml water), the “death of fish exposed to brevenal alone” value was “did not die after 24 h”.

Consider di-O-Me brevenal, for which, in data set [1], the Ki is 0.68 µM, the concentration giving a half-maximal response (EC50) was about 1.35 µM and the “displacement of tritiated brevetoxin PbTx-2” value is listed as about 80%.
